Patent US20250368653A1, “SOLID FORMS COMPRISING (S)-7-(1-ACRYLOYLPIPERIDIN-4-YL)-2-(4-PHENOXYPHENYL)-4,5,6,7-TETRAHYDROPYRAZOLO[1,5-A]PYRIMIDINE-3-CARBOXAMIDE, AND OXALIC ACID, COMPOSITIONS AND METHODS OF USE THEREOF” (BeiGene Switzerland GmbH, priority 2022, published 2025)
Values after ≈ are worked out from the molar mass of the structure shown. Read-outs that look alike come from different tables or passages of the source.

Key:
[1] = DVS water uptake; assay type: physicochemical; details: 25° C./80% RH
[2] = Solubility experiment in water; assay type: physicochemical; details: solid loading 2 mg/mL; for solubility at 1 h / solubility at 2 h / solubility at 4 h / solubility at 24 h: thermodynamic from solid, read-out: S: solubility
Protocol: Table 7 and Table 8 provide summaries of solubility experiment in water at 37° C. and 25° C., respectively.

Compound | FC: solid form change ([2]; 25° C., 1 hr) | pH ([2]; 25° C., 1 hr) | FC: solid form change ([2]; 25° C., 2 hrs) | pH ([2]; 25° C., 2 hrs) | FC: solid form change ([2]; 25° C., 4 hrs) | pH ([2]; 25° C., 4 hrs) | FC: solid form change ([2]; 25° C., 24 hrs) | pH ([2]; 25° C., 24 hrs) | FC: solid form change ([2]; 37° C., 1 hr) | pH ([2]; 37° C., 1 hr) | FC: solid form change ([2]; 37° C., 2 hrs) | pH ([2]; 37° C., 2 hrs) | FC: solid form change ([2]; 37° C., 4 hrs) | pH ([2]; 37° C., 4 hrs) | FC: solid form change ([2]; 37° C., 24 hrs) | pH ([2]; 37° C., 24 hrs) | S: solubility ([2]; 25° C., 1 hr) [µg/mL] | S: solubility ([2]; 25° C., 2 hrs) [µg/mL] | S: solubility ([2]; 25° C., 4 hrs) [µg/mL] | S: solubility ([2]; 25° C., 24 hrs) [µg/mL] | further results
C=CC(=O)N1CCC([C@@H]2CCNc3c(C(N)=O)c(-c4ccc(Oc5ccccc5)cc4)nn32)CC1 [Form 1] | No | 3.36 | No | 3.09 | No | 3.01 | No | 2.76 | Gel | 3.22 | Gel | 2.97 | Gel | 3.01 | Gel | 2.74 | – | – | – | – | hygroscopicity [1]: non hygroscopic; water uptake [1]: lower than 0.2%; solubility at 1 h ([2]; 25 °C, 25° C., 1 hr): 75 µg/mL (≈ 159 µM); solubility at 2 h ([2]; 25 °C, 25° C., 2 hrs): 78 µg/mL (≈ 165 µM); solubility at 4 h ([2]; 25 °C, 25° C., 4 hrs): 77 µg/mL (≈ 163 µM); solubility at 24 h ([2]; 25 °C, 25° C., 24 hrs): 75 µg/mL (≈ 159 µM); solubility at 1 h ([2]; 37 °C, 37° C., 1 hr): 90 µg/mL (≈ 191 µM); solubility at 2 h ([2]; 37 °C, 37° C., 2 hrs): 88 µg/mL (≈ 187 µM); solubility at 4 h ([2]; 37 °C, 37° C., 4 hrs): 73 µg/mL (≈ 155 µM); solubility at 24 h ([2]; 37 °C, 37° C., 24 hrs): 82 µg/mL (≈ 174 µM)
C=CC(=O)N1CCC([C@@H]2CCNc3c(C(N)=O)c(-c4ccc(Oc5ccccc5)cc4)nn32)CC1 [Freebase Amorphous] | No | 8.55 | No | 8.57 | No | 8.51 | No | 7.68 | Gel | 8.78 | Gel | 8.77 | Gel | 8.60 | Gel | 7.74 | 74 | 81 | 78 | 72 | S: solubility ([2]; 37° C., 1 hr): 89 µg/mL; S: solubility ([2]; 37° C., 2 hrs): 89 µg/mL; S: solubility ([2]; 37° C., 4 hrs): 84 µg/mL; S: solubility ([2]; 37° C., 24 hrs): 78 µg/mL
C=CC(=O)N1CCC([C@@H]2CCNc3c(C(N)=O)c(-c4ccc(Oc5ccccc5)cc4)nn32)CC1 [Freebase Form A] | No | 8.66 | No | 8.66 | No | 8.57 | No | 7.85 | No | 8.76 | No | 8.77 | No | 8.63 | No | 7.67 | 44 | 46 | 40 | 47 | S: solubility ([2]; 37° C., 1 hr): 55 µg/mL; S: solubility ([2]; 37° C., 2 hrs): 57 µg/mL; S: solubility ([2]; 37° C., 4 hrs): 59 µg/mL; S: solubility ([2]; 37° C., 24 hrs): 56 µg/mL
